From patent US20140005163A1 (NOVARTIS AG, priority 2010, published 2014)
pIC50: −log10 of the molar value.

Key:
PI3K alpha = target: T1, PI3K alpha (Homo sapiens, UniProt P42336); experiment: PI3K alpha kinase assay (Kinase-Glo luminescence); assay type: biochemical
T1 construct: p85(iSH2) fusion partner (see partner chain) (N); His tag (C); made in house; host or cells: baculovirus; Tn5 (Trichoplusia ni) or TiniPro insect cells
Outline: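 Compounds are titrated at 8 concentrations and mixed with PI3Kα protein (EMV B1075, 10 nM) in phosphatidylinositol (10 μg/mL). ATP at 1 μM starts the 60-minute room-temperature reaction, which is stopped with Kinase-Glo before luminescence reading. Four-parameter curve fitting gives IC50.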

[1] = tested on: S6 Ribosomal Protein phosphorylation Ser235/236 in TSC1 null mouse embryo fibroblast (MEF) cells; experiment: Reverse protein array assay, S6 Ribosomal Protein phosphorylation Ser235/236 in TSC1 null MEF cells; assay type: cell-based; settings: 1 h, pS6 ribosomal protein Ser235/236, 60 minutes incubation, read-out: p-S6 IC50
Outline: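 TSC1−/− MEFs, seeded and held ≥20 h at 37 °C/5% CO2, were exposed to 8-step serial compound dilutions (0.02% DMSO final; DMSO vehicle control) for 60 min at 37 °C. Cells were then lysed on ice for 10 min and lysates spotted onto reverse protein array chips.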

[2] = tested on: PKB Ser473 phosphorylation in Rat1-myr-HA-p110 alpha cells; experiment: Reverse protein array assay, PKB Ser473 phosphorylation in Rat1-myr-p110 alpha cells; assay type: cell-based; settings: 0.5 h, pAkt Ser473, 30 minutes compound incubation, read-out: p-PKB IC50
Outline: (§1)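 After at least 20 h of culture, the p110 isoform-transfected Rat1 lines receive compound in an 8-step dilution series, keeping DMSO at 0.2%, for 30 minutes. Cells are then lysed and lysates arrayed on chips for fluorescence detection of Ser473-phosphorylated PKB.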

[3] = tested on: PKB Ser473 phosphorylation in Rat1-myr-HA-p110 beta cells; experiment: Reverse protein array assay, PKB Ser473 phosphorylation in Rat1-myr-p110 beta cells; assay type: cell-based; settings: 0.5 h, pAkt Ser473, 30 minutes incubation, read-out: p-PKB IC50
Outline: as §1

T1 sequence (P42336 with tags, fused parts or gaps limits assumed): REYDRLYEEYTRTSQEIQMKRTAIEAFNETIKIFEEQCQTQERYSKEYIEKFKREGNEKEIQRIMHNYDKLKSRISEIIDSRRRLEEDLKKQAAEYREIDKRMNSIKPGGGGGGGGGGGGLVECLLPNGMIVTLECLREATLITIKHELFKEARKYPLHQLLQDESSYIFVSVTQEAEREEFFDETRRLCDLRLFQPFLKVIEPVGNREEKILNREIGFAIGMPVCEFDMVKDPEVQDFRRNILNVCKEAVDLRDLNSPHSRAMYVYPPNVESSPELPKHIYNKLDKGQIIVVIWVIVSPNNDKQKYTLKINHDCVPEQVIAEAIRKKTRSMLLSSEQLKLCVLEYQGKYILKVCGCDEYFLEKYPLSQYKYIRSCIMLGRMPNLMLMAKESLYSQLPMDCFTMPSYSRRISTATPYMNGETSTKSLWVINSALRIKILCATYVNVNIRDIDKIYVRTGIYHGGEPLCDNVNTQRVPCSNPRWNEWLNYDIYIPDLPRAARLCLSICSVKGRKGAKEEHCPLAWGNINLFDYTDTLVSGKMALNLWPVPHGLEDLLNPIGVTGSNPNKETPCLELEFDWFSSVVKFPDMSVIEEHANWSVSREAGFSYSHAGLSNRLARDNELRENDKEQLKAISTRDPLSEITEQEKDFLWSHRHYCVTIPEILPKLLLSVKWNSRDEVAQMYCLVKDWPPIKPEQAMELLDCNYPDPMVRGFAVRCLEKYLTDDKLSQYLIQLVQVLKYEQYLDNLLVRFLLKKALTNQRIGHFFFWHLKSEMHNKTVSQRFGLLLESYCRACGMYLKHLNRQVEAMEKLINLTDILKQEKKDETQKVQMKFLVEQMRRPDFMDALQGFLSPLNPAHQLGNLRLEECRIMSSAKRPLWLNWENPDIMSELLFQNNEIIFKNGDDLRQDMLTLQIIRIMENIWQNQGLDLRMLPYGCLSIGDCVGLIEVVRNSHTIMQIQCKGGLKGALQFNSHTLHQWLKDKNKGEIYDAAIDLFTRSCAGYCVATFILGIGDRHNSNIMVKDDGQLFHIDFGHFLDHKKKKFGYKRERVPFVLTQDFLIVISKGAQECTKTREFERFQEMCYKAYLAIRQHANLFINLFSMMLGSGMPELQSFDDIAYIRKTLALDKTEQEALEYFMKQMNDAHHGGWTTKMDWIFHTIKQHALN

pIC50 (PI3K alpha) | pIC50 [2] | pIC50 [3] | SMILES | pIC50 [1]
8.15 | 7.10 | 7.17 | Cc1nn(C)cc1-n1c(=O)n(C)c2cnc3ccc(-c4cnc(F)c(N)c4)cc3c21 [Example 149.2, 8-(5-Amino-6-fluoro-pyridin-3-yl)-1-(1,3-dimethyl-1H-pyrazol-4-yl)-3-methyl-1,3-dihydro-imidazo[4,5-c]quinolin-2-one] | 8.52
7.41 | 6.12 |  | COCCn1c(=O)n(C)c2ncc(-c3ccc4ncc5c(c4c3)n(-c3cn(C)nc3C)c(=O)n5C)cc21 [Example 69, 1-(1,3-Dimethyl-1H-pyrazol-4-yl)-8-[1-(2-methoxy-ethyl)-3-methyl-2-oxo-2,3-dihydro-1H-imidazo[4,5-b]pyridin-6-yl]-3-methyl-1,3-dihydro-imidazo[4,5-c]quinolin-2-one] | 
8.10 | 7.82 | 8.22 | Cc1nn(CC(=O)N(C)C)cc1-n1c(=O)n(C)c2cnc3ccc(-c4ccc(-n5cccn5)cc4)cc3c21 [Example 51.2, N,N-Dimethyl-2-{3-methyl-4-[3-methyl-2-oxo-8-(4-pyrazol-1-yl-phenyl)-2,3-dihydro-imidazo[4,5-c]quinolin-1-yl]-pyrazol-1-yl}-acetamide] | 9.00
7.52 | 7.14 | 7.24 | CCn1cc(-n2c(=O)n(C)c3cnc4ccc(-c5cnc(OC)nc5)cc4c32)c(C)n1 [Example 17.1, 1-(1-Ethyl-3-methyl-1H-pyrazol-4-yl)-8-(2-methoxy-pyrimidin-5-yl)-3-methyl-1,3-dihydro-imidazo[4,5-c]quinolin-2-one] | 7.06
8.40 | 7.74 | 7.80 | COc1ccc(-c2ccc3ncc4c(c3n2)n(-c2cc(C)nn2C)c(=O)n4C)cc1OC [Example 253, 8-(3,4-Dimethoxy-phenyl)-1-(2,5-dimethyl-2H-pyrazol-3-yl)-3-methyl-1,3-dihydro-1,3,5,9-tetraaza-cyclopenta[a]naphthalen-2-one] | > 8.30
7.70 | 8.00 | 7.77 | CCn1cc(-n2c(=O)n(C)c3cnc4ccc(-c5cnc(OC)nc5OC)cc4c32)c(C)n1 [Example 234.1, 8-(2,4-Dimethoxy-pyrimidin-5-yl)-1-(1-ethyl-3-methyl-1H-pyrazol-4-yl)-3-methyl-1,3-dihydro-imidazo[4,5-c]quinolin-2-one] | 8.05
8.52 | 7.92 | 7.70 | COc1ccc(-c2ccc3ncc4[nH]c(=O)n(-c5cc(C)nn5C)c4c3n2)cc1OC [Example 252, 8-(3,4-Dimethoxy-phenyl)-1-(2,5-dimethyl-2H-pyrazol-3-yl)-1,3-dihydro-1,3,5,9-tetraaza-cyclopenta[a]naphthalen-2-one] | 8.30
8.22 | > 8.30 | 8.22 | CCOc1cc(-c2ccc3ncc4c(c3c2)n(-c2cn(C)nc2C)c(=O)n4C)cnc1C [Example 85.1, 1-(1,3-Dimethyl-1H-pyrazol-4-yl)-8-(5-ethoxy-6-methyl-pyridin-3-yl)-3-methyl-1,3-dihydro-imidazo[4,5-c]quinolin-2-one] | 9.00
7.64 | 7.35 | 7.03 | CCNC(=O)c1cc(-c2ccc3ncc4c(c3c2)n(-c2cn(C)nc2C)c(=O)n4C)cnc1NC [Example 242.1, 5-[1-(1,3-Dimethyl-1H-pyrazol-4-yl)-3-methyl-2-oxo-2,3-dihydro-1H-imidazo[4,5-c]quinolin-8-yl]-N-ethyl-2-methylamino-nicotinamide] | 8.70
7.02 | 6.72 | 6.49 | Cc1cc(-n2c(=O)n(C)c3cnc4ccc(-c5ccc(C(F)(F)F)nc5)cc4c32)n(C)n1 [Example 8.2, 1-(2,5-Dimethyl-2H-pyrazol-3-yl)-3-methyl-8-(6-trifluoromethyl-pyridin-3-yl)-1,3-dihydro-imidazo[4,5-c]quinolin-2-one] | 
8.22 | 7.70 | 6.87 | CCn1cc(-n2c(=O)n(C)c3cnc4ccc(-c5cncc(C(C)(C)O)c5)cc4c32)c(C)n1 [Example 215.4, 1-(1-Ethyl-3-methyl-1H-pyrazol-4-yl)-8-[5-(1-hydroxy-1-methyl-ethyl)-pyridin-3-yl]-3-methyl-1,3-dihydro-imidazo[4,5-c]quinolin-2-one] | > 9.30
7.92 | 7.89 | 7.55 | Cc1nn(C)cc1-n1c(=O)n(C)c2cnc3ccc(-c4cncc(OCC5CC5)c4)cc3c21 [Example 61, 8-(5-Cyclopropylmethoxy-pyridin-3-yl)-1-(1,3-dimethyl-1H-pyrazol-4-yl)-3-methyl-1,3-dihydro-imidazo[4,5-c]quinolin-2-one] | 9.00
7.29 | 6.66 | 6.53 | Cc1nn(C)c(C)c1-n1c(=O)n(C)c2cnc3ccc(-c4cnc(N)nc4)cc3c21 [Example 81.2, 8-(2-Amino-pyrimidin-5-yl)-3-methyl-1-(1,3,5-trimethyl-1H-pyrazol-4-yl)-1,3-dihydro-imidazo[4,5-c]quinolin-2-one] | 7.72
7.19 | 7.19 | 6.41 | COc1ccc(-c2ccc3ncc4c(c3c2)n(-c2c(C)nn(C)c2C)c(=O)n4C)cn1 [Example 2.4, 8-(6-Methoxy-pyridin-3-yl)-3-methyl-1-(1,3,5-trimethyl-1H-pyrazol-4-yl)-1,3-dihydro-imidazo[4,5-c]quinolin-2-one] | 
7.42 | 7.30 | 6.84 | CCOc1ccc(-c2ccc3ncc4c(c3c2)n(-c2c(C)nn(C)c2C)c(=O)n4C)cc1OC [Example 29.2, 8-(4-Ethoxy-3-methoxy-phenyl)-3-methyl-1-(1,3,5-trimethyl-1H-pyrazol-4-yl)-1,3-dihydro-midazo[4,5-c]quinolin-2-one] | 
6.81 | 6.07 |  | CCOc1cncc(-c2ccc3ncc4c(c3c2)n(-c2c(C)cnn2C)c(=O)n4C)c1 [Example 56.5, 1-(2,4-Dimethyl-2H-pyrazol-3-yl)-8-(5-ethoxy-pyridin-3-yl)-3-methyl-1,3-dihydro-imidazo[4,5-c]quinolin-2-one] | 6.89
8.10 | > 8.30 | > 8.30 | CCc1ncc(-c2ccc3ncc4c(c3c2)n(-c2cn(C)nc2C)c(=O)n4C)cc1NC(C)C [Example 162, 1-(1,3-Dimethyl-1H-pyrazol-4-yl)-8-(6-ethyl-5-isopropylamino-pyridin-3-yl)-3-methyl-1,3-dihydro-imidazo[4,5-c]quinolin-2-one] | 
7.00 | 7.17 | 6.21 | Cc1nn(C)c(C)c1-n1c(=O)n(C)c2cnc3ccc(-c4ccc(N(C)C)nc4)cc3c21 [Example 4.3, 8-(6-Dimethylamino-pyridin-3-yl)-3-methyl-1-(1,3,5-trimethyl-1H-pyrazol-4-yl)-1,3-dihydro-imidazo[4,5-c]quinolin-2-one] | 
6.43 |  | 6.75 | Cc1nn(C)cc1-n1c(=O)n(C)c2cnc3ccc(-c4cnc5c(c4)nc(N(C)C)n5C)cc3c21 [Example 70, 8-(2-Dimethylamino-3-methyl-3H-imidazo[4,5-b]pyridin-6-yl)-1-(1,3-dimethyl-1H-pyrazol-4-yl)-3-methyl-1,3-dihydro-imidazo[4,5-c]quinolin-2-one] | 7.80
